Entries after “also recorded” stand apart in the source; their conditions may differ.
Tests used:
[1] = tested on: spontaneously hypertensive (SHT) rats; assay: Blood pressure in narcotized SHT rats, intravenous administration; type: in vivo, rat
Protocol: The experiments were performed on spontaneously hypertensive (SHT) and normotensive (NT) narcotized male rats using intravenous administration of the tested compounds. The ability of the compound to reduce arterial blood pressure (BP) in SHT rats and prevent spasmogenic reactions to noradrenalin (NA) and angiotensin I (AI).
The compound of formula I was used as a solution in 3% aqueous DMSO. Sodium nitroprusside and nitroglycerin were used as reference drugs.
The administration of the compound of formula I in dose range 0.01-0.1-0.5 and 1.0 mg/kg has exerted dose-dependent antihypertensive effect ranging in time from 30-40 s to 60 min and more.

[2] = tested on: ADP-induced platelet aggregation; assay: ADP-induced platelet aggregation of rabbit blood plasma, in vitro; type: cell-based; details: concentrations of 10^−3-10^−7 M; listed as compound of formula I
Protocol: (§1) Antiplatelet activity was assessed by the effect of the compound on platelet aggregation of rabbit blood plasma, induced by ADP (adenosine diphosphate) and arachidonic acid. Platelet aggregation was assessed by the change of optical density of plasma. Studies were performed using both intravenous administration, in comparison with sodium nitroprusside, and oral administration, in comparison with acetylsalicylic acid. Compound I was used in concentrations of 10^−3-10^−7 M (parenteral administration) and in 4-8 and 12 mg/kg doses (oral administration).

[3] = molecular target: T1, soluble guanylate cyclase of human platelets (Homo sapiens, UniProt Q02108+Q02153); assay: Specific activity of soluble guanylate cyclase of human platelets; type: biochemical; set-up: Activation: unit: % of initial activity
T1 construct: soluble guanylate cyclase of human platelets; from tissue; host or cells: human platelets
T1 sequence (Q02153 1-619): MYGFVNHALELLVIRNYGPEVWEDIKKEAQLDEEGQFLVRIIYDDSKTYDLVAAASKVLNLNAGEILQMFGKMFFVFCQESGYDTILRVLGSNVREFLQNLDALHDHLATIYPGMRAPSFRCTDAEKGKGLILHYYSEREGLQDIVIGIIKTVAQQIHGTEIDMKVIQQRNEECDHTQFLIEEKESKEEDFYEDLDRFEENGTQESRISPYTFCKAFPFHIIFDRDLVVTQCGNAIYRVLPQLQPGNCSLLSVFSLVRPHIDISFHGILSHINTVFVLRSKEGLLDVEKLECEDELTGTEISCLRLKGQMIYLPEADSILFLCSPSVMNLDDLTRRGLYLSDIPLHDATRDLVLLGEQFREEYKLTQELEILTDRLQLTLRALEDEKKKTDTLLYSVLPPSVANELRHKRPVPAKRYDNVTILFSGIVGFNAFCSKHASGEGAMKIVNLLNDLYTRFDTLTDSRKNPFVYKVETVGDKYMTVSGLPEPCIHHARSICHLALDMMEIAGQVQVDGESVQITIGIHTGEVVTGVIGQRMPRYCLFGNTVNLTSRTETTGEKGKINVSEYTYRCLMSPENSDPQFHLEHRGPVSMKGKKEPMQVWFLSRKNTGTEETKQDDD
T1 sequence (Q02108 1-690): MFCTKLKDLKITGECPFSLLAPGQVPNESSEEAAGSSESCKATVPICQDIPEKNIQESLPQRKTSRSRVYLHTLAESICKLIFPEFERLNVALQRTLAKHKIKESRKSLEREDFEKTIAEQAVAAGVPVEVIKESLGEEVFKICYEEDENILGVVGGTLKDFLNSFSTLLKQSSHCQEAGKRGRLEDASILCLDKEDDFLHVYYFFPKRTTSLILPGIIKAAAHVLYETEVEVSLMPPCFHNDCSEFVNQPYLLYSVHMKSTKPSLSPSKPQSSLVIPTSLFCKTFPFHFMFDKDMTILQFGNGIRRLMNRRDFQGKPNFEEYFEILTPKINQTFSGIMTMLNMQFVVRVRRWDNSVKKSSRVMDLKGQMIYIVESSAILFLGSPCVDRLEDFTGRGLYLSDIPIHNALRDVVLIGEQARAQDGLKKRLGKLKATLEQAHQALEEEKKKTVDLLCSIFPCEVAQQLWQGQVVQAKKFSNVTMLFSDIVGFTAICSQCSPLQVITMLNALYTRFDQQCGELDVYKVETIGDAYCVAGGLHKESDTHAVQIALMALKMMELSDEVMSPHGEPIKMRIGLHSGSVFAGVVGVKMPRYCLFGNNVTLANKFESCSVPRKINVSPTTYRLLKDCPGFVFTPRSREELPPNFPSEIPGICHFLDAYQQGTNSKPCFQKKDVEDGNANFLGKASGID

[4] = tested on: mice; assay: Acute toxicity (LD50); type: in vivo; details: mice, internal administration
Description: (§2) Acute toxicity of the compound in mice in internal administration is 8.9±0.75 g/kg, cumulation after 28 days administration is weak (lethality less than 50%).

[5] = Acute toxicity (LD50); type: in vivo; details: mouse, in vivo, other: internal administration
Description: as §2

[6] = tested on: platelet aggregation induced by arachidonic acid; assay: Platelet aggregation induced by arachidonic acid following peroral administration in rabbits; type: in vivo, rabbit
Protocol: FIG. 3 is a graph showing the changes in platelet aggregation, induced by arachidonic acid, following peroral administration of the compound I in rabbits (% compared to control).
as §1
Using arachidonic acid (AA) as an aggregation inductor, the experiments were performed in conditions of oral administration. We consider such experimentation justified by the possibility of different routes of administration for the tested compound, not only intravenous one (unlike sodium nitroprusside).

## CN1CC(CO)O/C1=C(C#N)/C=C1/Nc2ccccc2C1=O (stereo not shown) [Compound I, 2-[2-Cyano-2-[5-(hydroxymethyl)-3-methyl-1,3-oxazolidin-2-ylidene]ethylidene]indolin-3-one]
[1]; 0.01 mg/kg dose intravenous
  Duration of BP reduction: 30 s
  Reduction of BP: 10-12 mmHg
[1]; 0.01 mg/kg intravenously, 10-20 s
  Reduction of BP, mmHg (Δ): −12 ± 5 mmHg
[1]; 0.1 mg/kg intravenously, 10-20 s
  Reduction of BP, mmHg (Δ): −15 ± 5 mmHg
[1]; 0.1 mg/kg intravenously, 5 min
  Reduction of BP, mmHg (Δ): −20 ± 7 mmHg
[1]; 0.5 mg/kg intravenously, 10-20 s
  Reduction of BP, mmHg (Δ): −10 ± 3 mmHg
[1]; 0.5 mg/kg intravenously, 5 min
  Reduction of BP, mmHg (Δ): −20 ± 8 mmHg
[1]; 0.5 mg/kg intravenously, 30 min
  Reduction of BP, mmHg (Δ): −25 ± 8 mmHg
[1]; 0.5 mg/kg intravenously, 60 min
  Reduction of BP, mmHg (Δ): −30 ± 7 mmHg
[1]; 1.0 mg/kg dose intravenous
  Duration of BP reduction: 3600 s
  Reduction of BP (maximal effect): 25-30 mmHg
[1]; 1.0 mg/kg intravenously, 10-20 s
  Reduction of BP, mmHg (Δ): −12 ± 3 mmHg
[1]; 1.0 mg/kg intravenously, 5 min
  Reduction of BP, mmHg (Δ): −25 ± 7 mmHg
[1]; 1.0 mg/kg intravenously, 30 min
  Reduction of BP, mmHg (Δ): −30 ± 7 mmHg
[1]; 1.0 mg/kg intravenously, 60 min
  Reduction of BP, mmHg (Δ): −30 ± 8 mmHg
[1]; 1.0 mg/kg intravenously, 120 min
  Reduction of BP, mmHg (Δ): −30 ± 8 mmHg
[2]
  In vitro antiplatelet activity (inhibition of ADP-induced platelet aggregation): significantly inhibits; also recorded: as good as that of acetylsalicylic acid
[3]
  Activation of soluble guanylate cyclase (in words): approaches that of L-arginine
[3]; 0.1 mM concentration
  average degree of activation of the enzyme: 2.12 times
[3]; 0.1 mmol, mean of 5 samples
  Activation, Mean M ± m: 212 ± 67
[3]; 0.1 mmol, mean of 5 samples (initial 174 ± 33)
  Specific activity of GC, Mean M ± m: 342 ± 86 pmol cGMP/min/mg protein
[3]; 0.1 mmol, sample number 1
  Activation: 446
[3]; 0.1 mmol, sample number 1 (initial 133)
  Specific activity of GC: 593 pmol cGMP/min/mg protein
[3]; 0.1 mmol, sample number 2
  Activation: 153
[3]; 0.1 mmol, sample number 2 (initial 235)
  Specific activity of GC: 450 pmol cGMP/min/mg protein
[3]; 0.1 mmol, sample number 3
  Activation: 146
[3]; 0.1 mmol, sample number 3 (initial 100)
  Specific activity of GC: 146 pmol cGMP/min/mg protein
[3]; 0.1 mmol, sample number 4
  Activation: 189
[3]; 0.1 mmol, sample number 4 (initial 140)
  Specific activity of GC: 265 pmol cGMP/min/mg protein
[3]; 0.1 mmol, sample number 5
  Activation: 122
[3]; 0.1 mmol, sample number 5 (initial 211)
  Specific activity of GC: 256 pmol cGMP/min/mg protein
[4]
  Acute toxicity: 8.9 ± 0.75 g/kg
[5]
  LD50: 8900 mg/kg
[6]; after 2 hours (inductor not restated)
  Effect on platelet aggregation (statistically significant): 32%
[6]; at 4 hour (inductor not restated)
  Effect on platelet aggregation: 38%
[6]; end of the first hour (inductor not restated)
  Effect on platelet aggregation (as a tendency): up to 10%
[6]; oral, rabbits, 1 hour after the administration
  Reduction of platelet aggregation induced by arachidonic acid: reduced by a third
[6]; oral, rabbits, 4 hours
  Action of AA at the end of the observation period: comparable to the control
[6]; oral, rabbits, after 2 hour
  Inhibition of the action of the inductor (AA): by over two times
[6]; per os
  Duration of effect on AA-induced aggregation: 2 to 4 h
